# Experimental data published in patent publication US7485759B2, “Minimization of ligand degradation products, or reversion of same to useful phosphine ligands” (Dow Technology Investments LLC, priority 2003, dated 2009).
# Like-named read-outs stand apart in the source and are kept apart here.
# Tests used:
# [1] = Hydrocarbonylation of 2-pentenal with different ligands; ligand converted to phosphonium ion ligand degradation product by 31P-NMR (Example 4); format: physicochemical; conditions: ligand converted to phosphonium ion degradation product as percentage of total ligand; 3 hours, 70° C., 300 psig CO, 600 psig H2, 1570 ppm Rh, 4.6 mol ligand/mol Rh, 2-pentenal in 1-butanol
# Method: In a series of hydroformylation reactions (4A-D) 2-pentenal (50 mmols) was subjected to hydrocarbonylation conditions for 3 hours using a rhodium catalyst promoted with a variety of ligands having different cone angles and pKa's. Hydrocarbonylation conditions included: 70° C., 300 psig (2,068 kPa) carbon monoxide, 600 psig (4,136 kPa) hydrogen, 1570 ppm Rh, 4.6 mol ligand/mol Rh, and 40 wt % initial 2-pentenal in 1-butanol solvent. The source of Rh was Rh4(CO)12. During the course of the reaction 2-pentenal was hydrogenated to valeraldehyde and then to pentanol. After the reaction was completed, the reaction fluid was examined by P^31-NMR spectroscopy to determine the amount of ligand converted to phosphonium ion ligand degradation product, as a percentage of the total ligand in solution.
# [2] = Ligand basicity measured by pKa; format: physicochemical; conditions: est = estimated value
# Method: Basicity (electronic effect) measures the reactivity of a ligand towards a proton. Ligands with lower attraction to binding a proton are less basic, and therefore, generally of lower nucleophilicity. […] Generally, basicity is measured by pKa, known to those of skill in the art, as described in Organometallics, (1989) 8(1), 1, and by Wm. A. Henderson, Jr. and C. A. Streuli, Journal of the American Chemical Society, (1960), 82, 5791-5794, and by Tim Allman, et al., Canadian Journal of Chemistry (1982), 60(6), 716-722, all references incorporated herein by reference. Ligands having a pKa typically of less than about 8.3 provide for reduced formation of phosphonium ion ligand degradation products.
# [3] = Batch hydrocarbonylation of 1,3-butadiene; phosphonium salts followed by 31P-NMR and ligand usage (Examples 1-3); format: physicochemical
# Method: A batch hydrocarbonylation of 1,3-butadiene (BD) to pentenols was conducted at the following conditions: 70° C., 300 psig (2,068 kPa) carbon monoxide, 600 psig (4,136 kPa) hydrogen, 1570 ppm Rh, 4.6 mol ligand/mol Rh, and 40 wt % initial BD in 1-butanol solvent. Trioctylphosphine was used as ligand, and the Rh source was Rh4(CO)12. Multiple samples were taken from the reactor and analyzed by phosphorus-31 nuclear magnetic resonance spectroscopy (^31P-NMR) to follow the concentration of phosphonium ion ligand degradation products (phosphonium salts) with time. The concentration of phosphonium salts increased between t=0 and t=60 min, and their concentration reached a maximum of 0.008 mol/L at t=60 min. […] The concentration of 2-pentenal (α,β-unsaturated aldehyde) also reached a maximum at 60 min.
# The BD conversion at the time when the concentrations of phosphonium salts and α,β-unsaturated aldehyde were at their maximum was 39%. Had the reaction been stopped at 39% conversion of BD, the ligand usage (lost) to phosphonium salts would have been 65 g/L/day. However, the reaction was continued until 480 minutes to allow for the 2-pentenal to react away under normal reaction conditions. […] The BD conversion at t=480 min was 98%. When the reaction was stopped at 98% BD conversion, the ligand usage (lost) to phosphonium salts was less than 1 g/L/day.
# A batch hydrocarbonylation of 1,3-butadiene (BD) was conducted to partial conversion followed by stripping of the reaction product solution with hydrogen to hydrogenate residual α,β-unsaturated aldehyde (2-pentenal). The batch hydrocarbonylation was conducted at the following conditions: 70° C., 300 psig (2,068 kPa) carbon monoxide, 600 psig (4,136 kPa) hydrogen, 1590 ppm Rh, 4.5 mol ligand/mol Rh, and 40 wt % initial BD in 1-butanol solvent. The ligand used was trioctylphosphine, and the Rh source was Rh4(CO)12. The reaction was conducted for 130 minutes and reached 67% conversion BD. At that time, the concentration of phosphonium salts and α,β-unsaturated aldehyde (2-pentenal) were both about 0.006 mol/L. If no attempt had been made to revert the phosphonium salts at this point, the ligand usage (lost) to phosphonium salts would have been 25 g/L/day. The reactor was vented down to atmospheric pressure to remove most of the syn-gas (CO+H2). The reactor was then re-pressurized back to 900 psig (6,205 kPa) with pure hydrogen. […] Hydrogen was continuously sparged through the reactor at a rate of 0.5 standard cubic feet per hour (SCFH) during the time when the reactor was at 120° C. and 900 psig (6,205 kPa). After 10 minutes of stripping with hydrogen, all phosphonium salts were undetectable by ^31P-NMR, and the α,β-unsaturated aldehyde was undetectable by gas chromatography. The concentration of both of these species remained at essentially “0” for the remainder of the experiment. The ligand usage (loss to phosphonium salts) was reduced from 25 g/L/day to less than 1 g/L/day by reverting the phosphonium salts by hydrogenating the residual α,β-unsaturated aldehyde with hydrogen.
# A batch hydrocarbonylation of 1,3-butadiene (BD) was conducted to partial conversion followed by stripping of the reaction product solution with nitrogen to remove residual α,β-unsaturated aldehyde (2-pentenal) by volatilization at […]. The batch hydrocarbonylation was conducted at the following conditions: 70° C., 300 psig (2,068 kPa) carbon monoxide, 600 psig (4,136 kPa) hydrogen, 1590 ppm Rh, 4.6 mol ligand/mol Rh, and 40 wt % initial BD in 1-butanol solvent. The ligand used was trioctylphosphine, and the Rh source was Rh4(CO)12. The reaction was conducted for 120 minutes and reached 72% conversion of BD. At that time, the concentration of phosphonium salts and α,β-unsaturated aldehyde were about 0.005 and 0.016 mol/L, respectively. If no attempt had been made to revert the phosphonium salts at this point, the ligand usage (lost) to phosphonium salts would have been about 20 g/L/day. […]
# [4] = cited from earlier work
Compound,% Phosphonium Salt (by wt.) [1] [%],pKa [2],"ligand usage (lost) to phosphonium salts ([3]; Example 1, had the reaction been stopped at 39% conversion of BD) [g/L/day]","concentration of phosphonium salts ([3]; Example 1, maximum at t=60 min, 39% BD conversion, 70° C.) [mol/L]","ligand usage (lost) to phosphonium salts ([3]; Example 1, reaction stopped at 98% BD conversion)","concentration of phosphonium salts ([3]; Example 1, t=480 min, 98% BD conversion) [mol/L]","ligand usage (lost) to phosphonium salts ([3]; Example 2, 67% conversion BD, if no attempt made to revert) [g/L/day]","concentration of phosphonium salts ([3]; Example 2, 130 minutes, 67% conversion BD, before reversion)","phosphonium salts by 31P-NMR ([3]; Example 2, after 10 minutes of stripping with hydrogen, 120° C., 900 psig)","ligand usage (loss to phosphonium salts) ([3]; Example 2, after reversion with hydrogen)","ligand usage (lost) to phosphonium salts ([3]; Example 3, 72% conversion of BD, if no attempt made to revert)","concentration of phosphonium salts ([3]; Example 3, 120 minutes, 72% conversion of BD, before reversion)","concentration of phosphonium salts ([3]; Example 3, after 20 minutes of stripping with nitrogen, 120° C., 900 psig) [mol/L]","ligand usage (loss to phosphonium salts) ([3]; Example 3, after stripping with nitrogen) [g/L/day]",PKa [4],PKa ([4]; listed as tri-isobutylphosphine)
CCCCP(CCCC)C1CCCCC1 [Cyclohexyldi-n-butylphosphine],9.8,~8.9,,,,,,,,,,,,,,
CCCCCCCCP(CCCCCCCC)CCCCCCCC [tri-n-octylphosphine],,≥ 8.3,65,0.008,less than 1 g/L/day,0.0005,25,about 0.006 mol/L,undetectable,less than 1 g/L/day,about 20 g/L/day,about 0.005 mol/L,0.0005,2,,
CC(C)CP(CC(C)C)CC(C)C [Tri-isobutylphosphine],0.3,,,,,,,,,,,,,,7.97,less than 8.3
